Assay results taken from patent publication US7964598B2 (The J. David Gladstone Institutes, priority 1995, dated 2011).
Where “and” joins values, the source holds several entries; their conditions need not be identical. Identical values can stand only once.

Tests used:
apoE3 [1] = target: T1, apoE3 (Homo sapiens, UniProt P02649); assay: Emulsion binding assay, apoE3; conditions: follow-up assay
T1 construct: made in house
Description: (§1) Preparation of emulsion particles. Triolein (160 mg) and L-alpha-Phosphatidylcholine (40 mg) are combined and dried under nitrogen. After the addition of 8 mls of buffer (10 mM Tris, 100 mM KCl, 1 mM EDTA, pH 8.0), the mixture is sonicated in a water bath to obtain a heterogeneous mix of emulsion particles. The particles are harvested by ultracentrifugation (TLA 100.2 rotor, 30,000 rpm for 30 minutes) and the subsequent lipid cake is removed by tube slicing and resuspended in 100 μt 20 mM Phosphate Buffer (PB). Triolein and phospholipid content are measured and total emulsion particle concentration is determined.
(§2) Radiolabelling Freshly denatured and renatured Apolipoprotein E3 and E4 are radiolabelled using Bolton-Hunter Reagent [^125I] (ICN). Specific Activity is determined using Lowry method and Gamma 8000 counter.
(§3) Binding Affinity Assay. […] In glass tubes, 25 μg of protein (with iodinated tracer) was reduced with 1% β-mercaptoethanol. Two hundred and fifty μg of emulsion particles and 2.5 μl of compound (10 mM stock) were added and the final mixture was brought up to 250 μl with 20 mM phosphate buffer (PB). The reaction mixture was then incubated in a 37° C. water bath for 2 hours before being transferred to 1.5 ml ultracentrifuge tubes. Finally, 50 μl of 60% sucrose was mixed with the sample and 400 μl 20 mM PB was carefully layered on top. Using a TLA 100.2 rotor, the tube was spun at 30,000 rpm for 30 minutes and subsequently cut to separate the floating emulsion particle layer from the free protein at the bottom of the tube. These fractions were then combined with the respective half of the actual tube and counted using a Gamma-8000. […] Protein-only assays yielded 94.5-96.6% of protein accumulated in the bottom portion of the tube. In emulsion particle-only assays, 94% of emulsion particles accumulated in the top portion of the tube.
(§4) Preparation of Emulsion Particles and VLDL Binding Affinity Assay. VLDL-like emulsion particles were prepared using triolein (160 mg) and L-alpha-phosphatidylcholine (40 mg), as described. Dong and Weisgraber (1996) supra; and Dong et al. (1994) J. Biol. Chem. 269:22358-22365.

apoE3 [2] = assay: Aβ production assay, B103-APP cells incubated with apoE3; type: cell-based, rat; conditions: FIG. 22
Description: (§5) Aβ production assay. Stable neuroblastoma B103 cell lines transfected with a wildtype hAPP cDNA construct (B 103-APP) were selected by growing them in Dulbecco's modified Eagle's medium (DMEM) containing 10% fetal calf serum (FBS) and 400 μg/ml G418. A cell line expressing APP at similar levels in mouse brains has been identified by RNase protection assay (RPA) and was used in the studies described below. To determine Aβ production, B103-APP cells were incubated with serum-free minimal essential medium (MEM) containing N2 supplements with or without apoE isoforms for 24 h at 37° C. After incubation, 50 μl of medium was collected and assayed for Aβ levels with an ELISA method. The cells were lysed, and cellular proteins were determined by the Lowry method. AP production was normalized to cellular protein.
(§6) Cell Culture. Rat neuroblastoma B103 cells stably expressing human wildtype APP (hAPP695wt) (Xu et al. ((1999) Proc. Natl. Acad. Sci. USA 96:7547-7552; Esposito, et al. (2004) J. Neurochem. 91:1260-1274) were generated in Dr. Lennart Mucke's laboratory at the Gladstone Institute of Neurological Disease and maintained in Dulbecco's modified Eagle's medium (DMEM) (GIBCO, Grand Island, N.Y.) containing 400 μg/ml G418, 10% fetal bovine serum, and 5% horse serum at 37° C. Twenty-four hours after plating into 48-well plates (1×10^5 cells per well), cells were washed twice with serum-free DMEM and cultured for another 24 h in DMEM containing 1% N-2 supplement (GIBCO) to induce differentiation. The cells were treated with either β-VLDL (25 μg/ml cholesterol), recombinant human apoE isoform-enriched β-VLDL (7.5 μg/ml apoE and 25 μg/ml cholesterol), or recombinant human apoE (7.5 μg/ml apoE) in fresh DMEM containing 1% N-2 supplement for an additional 24 h. In some experiments, RAP (25 nM or 1 μM) was added to the cells 1 h before apoE treatment.
(§7) Aβ Assay. Aβ secreted into the medium was detected with a sandwich enzyme-linked immunosorbent assay (ELISA), using mAb 266 as a capturing antibody and 3D6 as a detecting antibody, as described. Johnson-Wood et al. ((1997) Proc. Natl. Acad. Sci. USA 94:1550-1555). Aβ was quantified from a standard curve (Aβ42; Bachem, Torrance, Calif.) and normalized by total cellular protein.

[3] = tested on: apoE4 enhancement of Aβ production; assay: Aβ production assay, B103-APP cells incubated with apoE4; type: cell-based, rat; conditions: FIG. 22
Description: as §5, §6, §7

apoE4 = target: T2, apoE4 (Homo sapiens, UniProt P02649, C130R); assay: Emulsion binding assay for domain interaction, apoE4; conditions: for E4 + cpd n = 3, % bound / E4 + cpd n = 3, % free / E4 control, % bound / E4 control, % free: follow-up assay; for E4 control, % bound / E4 control, % free: second E4 control; for E4 + cpd, % bound / E4 + cpd, % free: initial assay, 2.5 μl of compound (10 mM stock) in 250 μl, 37° C. 2 hours
T2 construct: made in house
T2 sequence (P02649 19-317 C130R): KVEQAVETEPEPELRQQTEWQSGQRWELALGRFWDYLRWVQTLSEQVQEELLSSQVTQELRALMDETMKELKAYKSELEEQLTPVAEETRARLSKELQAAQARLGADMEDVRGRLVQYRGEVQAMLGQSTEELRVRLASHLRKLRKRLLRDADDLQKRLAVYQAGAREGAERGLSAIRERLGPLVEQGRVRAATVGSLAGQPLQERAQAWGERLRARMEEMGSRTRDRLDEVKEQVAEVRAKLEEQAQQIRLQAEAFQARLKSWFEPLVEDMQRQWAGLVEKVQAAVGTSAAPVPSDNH
Description: as §1, §2, §3, §4

B103-APP cells = assay: APP processing and Aβ production, B103-APP cells; type: cell-based, rat
Description: as §5, §6
In some experiments, cells were treated with lovastatin, as described but with a minor modification. Fassbender et al. (2001) Proc. Natl. Acad. Sci. USA 98:5856-5861. Briefly, cells were maintained in differentiation medium containing 4 μM lovastatin and 0.25 mM mevalonate for 24 h. After treatment for 5 min with 5 mM methyl-β-cyclodextrin, which depletes cell membrane cholesterol (Bodovitz and Klein (1996) J. Biol. Chem. 271:4436-4440; Kojro et al. (2001) Proc. Natl. Acad. Sci. USA 98:5815-5820), the cells were incubated in fresh differentiation medium containing lovastatin and mevalonate for 24 h. The conditioned medium was collected, and cellular cholesterol extracted with chloroform/methanol (Huang et al. (1994) Proc. Natl. Acad. Sci. USA 91:1834-1838) and quantitated with a kit from Abbott Laboratories (Abbott Park, Ill.).
Detection of sAPPα. Media conditioned for 24 hours were normalized by protein content and subjected to SDS/PAGE. Proteins were then transferred onto nitrocellulose membranes. The sAPPα was detected by mAb 6E10 and visualized with an enhanced chemiluminescence system (Pierce, Rockford, Ill.).
as §7

Neuro-2a cells [4] = assay: Aβ-induced lysosomal leakage (cytosolic β-hexosaminidase); type: cell-based, mouse; conditions: 20 μM Aβ1-42
Description: The cytosolic fraction was obtained by ultracentrifugation, and the cytosolic β-hexosaminidase activity was measured.
Quantitation of the lysosomal enzyme β-hexosaminidase activity in the cytosol indicates lysosomal leakage. […] After incubation the cells were washed and cytosolic fractions were isolated as described in Materials and Methods. The enzymatic activity of β-hexosaminidase was assayed in 20 μg of cytosolic protein for each sample.
Lysosomal leakage was quantitated by assaying cytosolic 0-hexosaminidase activity. […] Conditioned media were prepared as described above. Apoptosis was quantitated by measuring DNA fragmentation.

Neuro-2a cells [5] = assay: Aβ-induced apoptosis (DNA fragmentation assay); type: cell-based, mouse
Description: DNA Fragmentation Assay—DNA fragmentation of apoptotic cells was determined with Cell Death Detection ELISA kits (Roche, Indianapolis, Ind.).
FIG. 38. […] Control cells were not treated with Aβ1-42. Apoptotic cell death was measured with a DNA fragmentation assay. Values are the mean±S.D. of three separate experiments.
FIGS. 39A and 39B. […] Lysosomal leakage was quantitated by assaying cytosolic 0-hexosaminidase activity. […] Conditioned media were prepared as described above. Apoptosis was quantitated by measuring DNA fragmentation.

[6] = β-VLDL 25 μg/ml cholesterol or lovastatin 4 μM

T1 sequence (P02649 19-317): as the sequence (P02649 19-317 C130R) above, with R112C counted along it

E3 + compound, % bound (apoE3 [1])	E3 + compound, % free (apoE3 [1])	E4 + cpd n = 3, % bound (apoE4)	E4 + cpd n = 3, % free (apoE4)	E4 control, % bound (apoE4)	E4 control, % free (apoE4)	E4 + cpd, % bound (apoE4)	E4 + cpd, % free (apoE4)	Compound	further results
14%	86%	57%	43%	49%	51%	22% and 19%	78% and 81%	5-chloro-2-(4-chloro-2-(3,4-dichloro phenylureido) [GIND32]	effect on apoE3 (Aβ production) (apoE3 [2]): no effect; apoE4 enhancement of Aβ production [3]: abolished completely
20%	80%	57%	43%	26%	74%	11% and 10%	89% and 90%	O.O=C([O-])c1ccccc1-c1c2cc(I)c(=O)c(I)c-2oc2c(I)c([O-])c(I)cc12.[Na+].[Na+] [Erythrosin B]	–
26%	74%	57%	43%	43%	57%	25% and 23%	75% and 77%	O=C(N[C@H](Cc1ccc(OCc2ccccc2)cc1)C(=O)O)OCc1ccccc1 [Z-D-Tyr (BZL)-OH]	–
–	–	–	–	–	–	–	–	CC[C@H](C)C(=O)O[C@H]1C[C@@H](C)C=C2C=C[C@H](C)[C@H](CC[C@@H]3C[C@@H](O)CC(=O)O3)[C@H]21 [lovastatin, reference compound]	cellular cholesterol content (B103-APP cells; [6]): lowered; production of Aβ (B103-APP cells; [6]): decreased; secretion of sAPPα (B103-APP cells; [6]): increased
–	–	–	–	–	–	–	–	Aβ1-42: Amyloid β1-42, aggregated before use	increase of cytosolic β-hexosaminidase activity (Neuro-2a cells [4]; apoE4-transfected cells): ~85%; increase of cytosolic β-hexosaminidase activity (Neuro-2a cells [4]; neo-transfected cells): ~40%; DNA fragmentation (Neuro-2a cells [5]; apoE3-transfected cells, 20 μM Aβ1-42, 18 h): 110 % of that in Z-VAD-treated con; DNA fragmentation (Neuro-2a cells [5]; apoE4-transfected cells, 20 μM Aβ1-42, 18 h): ~250 % of that in Z-VAD-treated con; Aβ-induced DNA fragmentation (Neuro-2a cells [5]; neo-transfected cells in apoE3-conditioned medium, 20 μM Aβ1-42, 18 h): 202%; Aβ-induced DNA fragmentation (Neuro-2a cells [5]; neo-transfected cells in apoE4-conditioned medium, 20 μM Aβ1-42, 18 h): 314%; Aβ-induced DNA fragmentation (Neuro-2a cells [5]; neo-transfected cells in neo-conditioned medium, 20 μM Aβ1-42, 18 h): 232%; DNA fragmentation (Neuro-2a cells [5]; neo-transfected cells, 20 μM Aβ1-42, 18 h): ~140 % of that in Z-VAD-treated con
–	–	–	–	–	–	–	–	Z-VAD	DNA fragmentation, Z-VAD treatment alone (Neuro-2a cells [5]; compared with untreated control cells): no effect; Aβ-induced DNA fragmentation (Neuro-2a cells [5]; pretreatment with Z-VAD 100 μg/ml 2 h, all three cell lines): greatly reduced
–	–	–	–	–	–	–	–	apoE4-Thr-61: Thr-61 mutant of apoE4, lacks intramolecular domain interaction	enhanced Aβ production (B103-APP cells; 7.5 μg/ml, 37° C., 24 h, compared with apoE3 or apoE4): abolished the enhanced Aβ production

Compound	E3 + compound, % bound (apoE3 [1])	E3 + compound, % free (apoE3 [1])	E4 + cpd n = 3, % bound (apoE4)	E4 + cpd n = 3, % free (apoE4)	E4 control, % bound (apoE4)	E4 control, % free (apoE4)	E4 + cpd, % bound (apoE4)	E4 + cpd, % free (apoE4)	further results
glycine cresol red [GIND29]	33%	67%	57%	43%	48%	52%	23% and 29%	77% and 71%	effect on apoE3 (Aβ production) (apoE3 [2]): no effect; apoE4 enhancement of Aβ production [3]: abolished completely
